What was measured:
[1] = Maximum lopinavir concentration in suspension after thermal treatment (LC-MS/MS); assay type: physicochemical; conditions: after thermal treatment (melt-quench), normalized to lopinavir content
Experimental: Lopinavir in suspension was measured in μg/mL.

[2] = cited from earlier work

Structure (SMILES)	Maximum drug concentration in suspension [1]	Log D [2]
Cc1cccc(C)c1OCC(=O)N[C@@H](Cc1ccccc1)[C@@H](O)C[C@H](Cc1ccccc1)NC(=O)[C@H](C(C)C)N1CCCNC1=O [Lopinavir (amorphous), lopinavir]	322.00 µg/mL	–
Cc1cccc(C)c1OCC(=O)N[C@@H](Cc1ccccc1)[C@@H](O)C[C@H](Cc1ccccc1)NC(=O)[C@H](C(C)C)N1CCCNC1=O [Lopinavir, lopinavir]	–	4.6
CC(C)c1nc(CN(C)C(=O)N[C@H](C(=O)N[C@@H](Cc2ccccc2)C[C@H](O)[C@H](Cc2ccccc2)NC(=O)OCc2cncs2)C(C)C)cs1 [Ritonavir, ritonavir]	–	5.7
Nc1ccn([C@@H]2CS[C@H](CO)O2)c(=O)n1 [Lamivudine, lamivudine]	–	−1.1

— US20190328667A1, “DRUG-POLYMER PARTICLES WITH SUSTAINED RELEASE PROPERTIES” (University of Washington, priority 2016, published 2019)
